What was measured:
[1] = system: cad-11 RNA transcript in human granulosa cells; assay: Specificity of antisense in granulosa cells, Northern blot, cad-11 probe; assay type: cell-based; parameters: dose or concentration left out as unconfirmed; conditions: 24 hours, dose-dependent manner for OB-1
Procedure: (§1) In order to determine the specificity of OB-1, the effect of OB-1 was determined in human granulosa cells. Human granulosa cells express three cadherin subtypes (cad-11, cad-6 and N-cad) as they undergo spontaneous luteinization in culture. Granulosa cells which had been cultured for 36 hours were treated with OB-1 or OB-3 (0.5-5 M). The cultures were maintained for a further 24 hours, after which the cells were harvested for Northern analysis. Northern blots were probed with cad-11, cad-6, or N-cadherin (neural cadherin) cDNA probes as previously described. OB-1 caused a reduction in the levels of the cad-11 RNA transcript in a dose-dependent manner but had no effect on cad-6 or N-cadherin mRNA levels. In contrast.

[2] = system: cad-6 mRNA in human granulosa cells; assay: Specificity of antisense in granulosa cells, Northern blot, cad-6 probe; assay type: cell-based; conditions: 0.5-5 M, 24 hours
Procedure: as §1

[3] = system: N-cadherin mRNA in human granulosa cells; assay: Specificity of antisense in granulosa cells, Northern blot, N-cadherin probe; assay type: cell-based; conditions: 0.5-5 M, 24 hours
Procedure: as §1

[4] = system: Cos-1 cells transfected with the steroid acute regulatory protein; assay: Non-specific effects on cell number and steroidogenic capacity in Cos-1 cells; assay type: cell-based; parameters: cell number (Coulter cell counter): dose or concentration left out as unconfirmed
Procedure: Non-specific effects of the antisense oligonucleotides on cell viability and the steroidogenic capacity of cells was determined using Cos-1 cells transfected with the steroid acute regulatory protein (from Dr. J. F. Strauss, III. University of Pennsylvania, Philadelphia, Pa.). […] The COS-1 cells were cultured in the presence or absence of varying concentrations of OB-1 OR OB-3 (0.5-5 M) for 48 hours. The cell number present in each culture was determined using a Coulter™ cell counter and P4 concentrations present in the culture medium using a Progesterone RIA™ kit. As determined by these parameters.

[5] = system: cad-11 in cytotrophoblasts isolated from term placenta; assay: Western blot of cad-11 in term placenta cytotrophoblasts treated with oligonucleotide; assay type: cell-based, human; conditions: 5 NI, further 24 or 48 hours
Procedure: (§2) Cellular aggregation in these cultures is observed after approximately 12 hours, with syncytial structures being observed after approximately 24 hours. After 72 hours, multinucleated syncytium is the predominant cell feature in these cultures. As described above, the terminal differentiation and fusion of these cells is associated with an increase in cad-11 mRNA and protein expression levels and a concomitant decrease in E-cad expression.
(§3) The effects of OB-1 on the differentiation of these trophoblasts isolated from term placenta was determined. Cytotrophoblasts were cultured for 0, 6, 12 or 24 hours before being treated with either OB-1 or OB-3 (5 NI). The cultures were maintained for a further 24 or 48 hours, after which the cells were harvested for Western blot analysis.

[6] = system: E-cad in cytotrophoblasts isolated from term placenta; assay: Western blot of E-cad in term placenta cytotrophoblasts treated with oligonucleotide; assay type: cell-based, human; conditions: 5 NI, further 24 or 48 hours
Procedure: as §2, §3

[7] = system: cytotrophoblasts isolated from term placenta; assay: Morphology of cytotrophoblasts by light microscopy and indirect immunofluorescence; assay type: cell-based, human
Description: The effect of OB-1 and OB-3 on the morphology of the cytotrophoblast was examined by light microscopy and indirect immunofluoresence.

villous cytotrophoblasts [8] = assay: P4 and hCG in culture medium of villous cytotrophoblasts (functional differentiation); assay type: cell-based, human; conditions: compared with OB-3 treated cells
Procedure: To determine whether reduced cad-11 expression in villous cytotrophoblasts would affect the functional differentiation of the primary cell cultures, concentrations of P4 and hCG were measured in the culture medium. The number of cells present in these cell cultures was determined by DNA content.

villous cytotrophoblasts [9] = assay: Reversibility of oligonucleotide effects on villous cytotrophoblasts; assay type: cell-based, human; conditions: 48 hours with oligonucleotide, washed, further 24 hours
Procedure: To determine whether the effects of OB-1 on villous cytotrophoblasts are reversible, cells were cultured in the presence of OB-1 or OB-3 for 48 hours. The cells were washed thoroughly with PBS. The culture medium was then replaced and the cells cultured for a further 24 hours. […] The majority of cells (90%) detached from the culture and dish. Cad-11 was not detected in the remaining cells.

[10] = system: BeWo choriocarcinoma cells; assay: BeWo choriocarcinoma cells cultured with cAMP, differentiation and fusion; assay type: cell-based
[11] = system: cad-11 in decidual explants; assay: Western blot of cad-11 in decidual explants; assay type: cell-based, human; parameters: dose or concentration left out as unconfirmed
Procedure: Co-cultures of decidua parietalis and villous placenta were established on a three-dimensional gel of rat tail collagen. The decidua and the villous tissue were cut into 1-2 mm cubes, explants were placed in 35 nun culture dishes containing 0.1 ml of the collagen mixture. After the gel had formed, a piece of villous tissue, suspended in 0.05 ml of culture medium was placed on to the exposed decidual surface. After 2 hours, the plates were flooded with culture medium. Stable adhesion between the villous and decidual tissues occurred within 48 hours. Samples are harvested after 48, 72, or 96 hours of culture. Tissues were embedded in OCT compound, snap frozen, and frozen section prepared. Blocks containing the co-cultures were cut in-full in order to obtain information about the three dimensional aspect of the contact sites. Contact sites were identified by hematoxylin staining and confirmed by immunostaining for cytokeratin. In the areas of contact, there was cytotrophoblast layering leading to localized erosion of the syncytial trophoblast and the formation of an extravillous column, which penetrates the underlying decidual explant.
In order to determine whether the cad-11 antisense oligonucleotides could decrease cad-11 expression in tissue explants, decidual explants were cultured in the presence of OB-1 or OB-3 (5 M) for 24 hours.

[12] = system: Villous cytotrophoblasts isolated from the human term placenta, cultured 72 hours
human decidual cells [13] = system: human decidual cells
[14] = system: PC3 cells treated with TGF-1
human decidual cells [15] = assay: Effect on primary cultures of human decidual cells; parameters: cell interactions and attachment: dose or concentration left out as unconfirmed; conditions: for 24 hours
[16] = system: PC3 cells treated with TGF-1; assay: Effect of oligonucleotides on PC3 cells treated with TGF-1; parameters: cell interactions and attachment: dose or concentration left out as unconfirmed; conditions: for 24 hours

In the case of “OB-1: cad-11 antisense oligonucleotide, 18 mer, phosphothiorate: GGC GGC TTG TAA ACA GTA (SEQ ID NO:1) (antisense GGCGGCTTGTAAACAGTA; all phosphorothioate, sugars by position and methylation of C not given here; listed as Homo sapiens)”, the “levels of the cad-11 RNA transcript” value [1] is reported as “reduction”, the “cad-6 mRNA levels” value [2] is reported as “no effect” and the “N-cadherin mRNA levels” value [3] is reported as “no effect”. The “steroidogenic capacity (P4 concentrations in culture medium, RIA)” value ([4]; 0.5-5 M for 48 hours) was “did not have a significant effect”, the “cell number (Coulter cell counter)” value ([4]; for 48 hours) was “did not have a significant effect” and the “cad-11 expression with time in culture” value [5] was “failed to up-regulate”. The E-cad levels [6] was “remained constant”, the “composition of cellular structures formed (fusion)” value ([7]; indirect immunofluorescence for E-cadherin) was “mononucleate cytotrophoblasts” and the “ability of the cytotrophoblasts to aggregate” value ([7]; light microscopy) was “did not appear to affect”. The “levels of P4 in the culture medium” value (villous cytotrophoblasts [8]) was “significantly lower”, the “levels of hCG in the culture medium” value (villous cytotrophoblasts [8]) was “significantly lower” and the “cad-11 in the remaining cells” value (villous cytotrophoblasts [9]) was “not detected”. For the same substance, the “cell viability after wash-out” value (villous cytotrophoblasts [9]) was “no longer viable”, the “cells detached from the culture dish” value (villous cytotrophoblasts [9]) was 90% and the “cellular differentiation and fusion” value ([10]; cells cultured in the presence of cAMP for 12 hours) was “inhibiting cellular differentiation and fusion”. For the same substance, the “membrane integrity of the syncytial structures” value ([10]; syncytial structures formed after 24 hours of cAMP) was “disrupted the membrane integrity”, the cad-11 expression [11] was “significantly reduced” and the “viability of syncytial structures (trypan blue)” value [12] was “no longer viable”. The “structures observed (phase contrast microscopy)” value ([12]; oligonucleotide added after 72 hours of culture, OB-1 for 24 hours) was “cellular debris”, the “viability by trypan blue staining” value (human decidual cells [13]) was “no longer viable” and the “viability by trypan blue staining” value [14] was “no longer viable”. The “cell interactions and attachment” value (human decidual cells [15]) was “lose interactions with one another and detach from the plastic in a dose-dependent manner” and the “cell interactions and attachment” value [16] was “lose interactions with one another, and detach from the plastic in a dose-dependent manner”.

From US20050180982A1, “Cadherin-11 expression, an assay and treatment for cellular invasiveness” (THE UNIVERSITY OF BRITISH COLUMBIA, priority 1998, published 2005)
